Results on 30 compounds are retold here after patent US20240124412A1, “IKAROS ZINC FINGER FAMILY DEGRADERS AND USES THEREOF” (Gilead Sciences, Inc., priority 2021, published 2024).

One experiment has as its target T1, IKZF1 (Homo sapiens, UniProt Q13422+Q96SW2).
T1 construct: expressed in transfected cells
The experiment is described as follows: HiBiT protein tagging assay, in vitro IKZF1 degradation (HEK293). Format: cell-based. Conditions: for Dmax: read-out: IKZF1 Dmax (maximum degradation at the highest concentration tested). The essentials:
(§1)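 Flp-In T-REx HEK293 pools stably expressing C-terminal HiBiT-tagged IKZF1 or IKZF2 were induced overnight with 1 μg/ml doxycycline. Cells were then treated with serially diluted compound for 18-24 hr at 37 °C and read by Nano-Glo lytic luminescence. Data were normalized to 0.5% DMSO as POC; EC50 and Dmax (maximum degradation at highest concentration tested) reported.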
In general terms: With HiBiT, luminescence reflects the tagged protein that the partner subunit can reach.

The target in the next experiment is T2, IKZF2 (Homo sapiens, UniProt Q96SW2+Q9UKS7).
T2 construct: expressed in transfected cells
T2 sequence (Q9UKS7 1-500 isoform Q9UKS7-2): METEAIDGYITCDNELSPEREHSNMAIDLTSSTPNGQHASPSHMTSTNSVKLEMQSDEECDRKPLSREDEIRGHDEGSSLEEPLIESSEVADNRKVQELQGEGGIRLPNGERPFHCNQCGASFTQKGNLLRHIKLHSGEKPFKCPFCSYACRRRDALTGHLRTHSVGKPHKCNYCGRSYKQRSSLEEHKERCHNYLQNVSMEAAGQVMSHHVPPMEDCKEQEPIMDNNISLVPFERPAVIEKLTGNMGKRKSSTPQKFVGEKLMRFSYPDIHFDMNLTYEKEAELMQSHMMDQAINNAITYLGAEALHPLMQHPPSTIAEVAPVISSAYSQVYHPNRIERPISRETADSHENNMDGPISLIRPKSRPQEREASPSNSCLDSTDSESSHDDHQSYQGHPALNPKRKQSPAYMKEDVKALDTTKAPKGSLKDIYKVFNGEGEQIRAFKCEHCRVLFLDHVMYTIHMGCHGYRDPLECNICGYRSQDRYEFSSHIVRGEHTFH
T2 sequence (Q96SW2 whole entry): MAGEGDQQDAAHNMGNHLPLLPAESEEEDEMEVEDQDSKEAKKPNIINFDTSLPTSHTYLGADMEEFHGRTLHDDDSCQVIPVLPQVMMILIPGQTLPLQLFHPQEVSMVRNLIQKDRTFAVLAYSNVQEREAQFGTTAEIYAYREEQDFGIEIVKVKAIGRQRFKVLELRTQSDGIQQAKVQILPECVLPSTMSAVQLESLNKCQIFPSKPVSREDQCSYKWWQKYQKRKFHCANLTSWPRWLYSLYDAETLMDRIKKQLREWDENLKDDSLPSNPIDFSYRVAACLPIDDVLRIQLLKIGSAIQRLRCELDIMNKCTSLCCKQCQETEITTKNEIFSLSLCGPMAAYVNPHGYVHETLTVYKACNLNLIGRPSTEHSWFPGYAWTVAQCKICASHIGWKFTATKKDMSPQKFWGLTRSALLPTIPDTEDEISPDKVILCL
T2 sequence (Q16531 whole entry partner): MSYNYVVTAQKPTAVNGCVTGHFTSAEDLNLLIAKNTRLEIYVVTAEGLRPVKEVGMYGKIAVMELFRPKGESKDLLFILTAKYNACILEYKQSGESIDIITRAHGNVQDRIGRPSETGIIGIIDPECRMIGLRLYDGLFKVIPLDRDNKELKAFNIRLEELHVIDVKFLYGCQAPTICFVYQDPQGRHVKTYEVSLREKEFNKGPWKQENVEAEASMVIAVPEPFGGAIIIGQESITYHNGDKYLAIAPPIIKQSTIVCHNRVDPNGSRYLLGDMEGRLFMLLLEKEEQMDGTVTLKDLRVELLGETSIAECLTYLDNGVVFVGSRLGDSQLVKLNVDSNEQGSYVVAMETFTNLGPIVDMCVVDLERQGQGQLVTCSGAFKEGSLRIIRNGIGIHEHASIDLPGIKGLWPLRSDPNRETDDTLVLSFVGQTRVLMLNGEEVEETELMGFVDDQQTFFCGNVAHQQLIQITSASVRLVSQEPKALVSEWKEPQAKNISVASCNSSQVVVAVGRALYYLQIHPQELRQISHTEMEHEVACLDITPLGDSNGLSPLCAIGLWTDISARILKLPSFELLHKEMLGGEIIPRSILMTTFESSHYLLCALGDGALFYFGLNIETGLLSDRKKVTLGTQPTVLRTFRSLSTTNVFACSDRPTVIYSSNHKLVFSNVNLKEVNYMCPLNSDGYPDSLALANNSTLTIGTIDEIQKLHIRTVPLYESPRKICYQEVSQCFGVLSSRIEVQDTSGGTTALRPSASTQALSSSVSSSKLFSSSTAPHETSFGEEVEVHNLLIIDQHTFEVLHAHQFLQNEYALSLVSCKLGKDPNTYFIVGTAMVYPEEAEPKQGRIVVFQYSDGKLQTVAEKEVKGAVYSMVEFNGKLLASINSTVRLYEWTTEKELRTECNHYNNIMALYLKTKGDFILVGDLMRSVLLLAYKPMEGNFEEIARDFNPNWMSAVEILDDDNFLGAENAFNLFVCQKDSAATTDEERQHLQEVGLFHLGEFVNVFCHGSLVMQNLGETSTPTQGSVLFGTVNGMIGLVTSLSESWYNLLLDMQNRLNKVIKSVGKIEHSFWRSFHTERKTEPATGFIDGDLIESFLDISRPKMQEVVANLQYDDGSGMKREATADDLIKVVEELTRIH
The experiment is described as follows: HiBiT protein tagging assay, in vitro IKZF2 degradation (HEK293). In kind it is cell-based. The essentials:
as §1

The mark [1] stands for this setting: HEK293, 18-24 hr incubation, normalized to DMSO control.
[2] abbreviates: HEK293, 18-24 hr incubation, normalized to DMSO control, read-out: IKZF1 EC50.
[3] abbreviates: HEK293, HiBiT assay, HEK293, 18-24 hr incubation, normalized to DMSO control; read-out: IKZF2 Dmax (maximum degradation at the highest concentration tested).
Setting [4] is: HiBiT assay, HEK293, 18-24 hr incubation, normalized to DMSO control; read-out: IKZF2 EC50.

Like-named read-outs stand apart in the source and are kept apart here.

T1 sequence (Q13422 whole entry): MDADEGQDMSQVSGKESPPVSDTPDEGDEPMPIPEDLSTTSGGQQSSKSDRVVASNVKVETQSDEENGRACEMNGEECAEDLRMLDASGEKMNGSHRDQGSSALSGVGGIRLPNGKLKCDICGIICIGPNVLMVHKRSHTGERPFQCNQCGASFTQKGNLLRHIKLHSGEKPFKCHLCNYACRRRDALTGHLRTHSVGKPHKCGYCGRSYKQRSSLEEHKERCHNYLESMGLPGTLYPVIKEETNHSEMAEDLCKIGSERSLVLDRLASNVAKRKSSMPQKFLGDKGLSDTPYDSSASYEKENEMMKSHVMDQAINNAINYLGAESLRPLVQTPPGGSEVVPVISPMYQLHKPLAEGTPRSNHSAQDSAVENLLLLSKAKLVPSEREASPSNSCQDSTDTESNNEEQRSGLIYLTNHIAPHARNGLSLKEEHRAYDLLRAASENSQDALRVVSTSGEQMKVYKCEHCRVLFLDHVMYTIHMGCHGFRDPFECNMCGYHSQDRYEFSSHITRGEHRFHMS
T1 sequence (Q96SW2 whole entry): as the sequence (Q96SW2 whole entry) above
T1 sequence (Q16531 whole entry partner): as the sequence (Q16531 whole entry partner) above

As for `O=C1CCC(N2Cc3cc(CNC4CCCC(C(F)(F)F)C4)ccc3C2=O)C(=O)N1` (stereo not drawn) [Example 128, 3-(1-oxo-5-((((1,3-trans)-3-(trifluoromethyl)cyclohexyl)amino)methyl)isoindolin-2-yl)piperidine-2,6-dione], the Dmax on IKZF1 (setting [1]) was 42%; at IKZF2 (setting [3]), 64%. In addition, the DC50 is 104 nM at IKZF1 (setting [2]) and 181 nM on IKZF2 (setting [4]).
Regarding `O=C1CCC(N2Cc3cc(CN[C@@H]4CCC[C@H](C(=O)c5ccccc5)C4)ccc3C2=O)C(=O)N1` (stereo partly shown) [Example 129], the Dmax on IKZF1 (setting [1]) and at IKZF2 (setting [3]) was 60% in each case. Further, the results for the DC50 at IKZF1 (setting [2]) and at IKZF2 (setting [4]) were 113 nM and 193 nM, respectively.
On to `O=C1CCC(N2Cc3cc(CN[C@@H]4CCCN(Cc5ccccn5)C4)ccc3C2=O)C(=O)N1` (stereo partly drawn) [Example 130, 3-(1-oxo-5-((((R)-1-(pyridin-2-ylmethyl)piperidin-3-yl)amino)methyl)isoindolin-2-yl)piperidine-2,6-dione], for which the Dmax on IKZF1 (setting [1]) and on IKZF2 (setting [3]) was 97% throughout. Besides, the DC50 turned out to be 48 nM on IKZF1 (setting [2]) and 138 nM on IKZF2 (setting [4]).
For `CC1(C)CCCC(NCc2ccc3c(c2)CN(C2CCC(=O)NC2=O)C3=O)C1` (stereo not shown) [Example 131], the Dmax is 69% at IKZF1 (setting [1]) and 92% at IKZF2 (setting [3]). Further, the DC50 was 91 nM at IKZF1 (setting [2]) and 62 nM on IKZF2 (setting [4]).
For `O=C1CCC(N2Cc3cc(CNC4CCCC5(CC5)C4)ccc3C2=O)C(=O)N1` (stereo not shown) [Example 132], in that order: 58%, 84%, 146 nM and 97 nM.
For `O=C1CCC(N2Cc3cc(CNC4CCCC5(CCCC5)C4)ccc3C2=O)C(=O)N1` (stereo not shown) [Example 133] the same measures were 51%, 72%, 185 nM and 273 nM.
For `C[C@@H]1[C@@H](NCc2ccc3c(c2)CN(C2CCC(=O)NC2=O)C3=O)C[C@H]2C[C@@H]1C2(C)C` (stereo partly shown) [Example 134], the DC50 at IKZF1 (setting [2]) was more than 10000 nM; on IKZF2 (setting [4]) it was 111 nM. Further, the Dmax at IKZF2 (setting [3]) turned out to be 89%.
As for `O=C1CCC(N2Cc3cc(CN[C@@H]4CCC[C@H]([C@@H](O)c5ccccc5)C4)ccc3C2=O)C(=O)N1` (stereo partly shown) [Example 135], the values for the Dmax at IKZF1 (setting [1]) and at IKZF2 (setting [3]) were 92% and 94%, respectively. Further, the DC50 worked out at 95 nM at IKZF1 (setting [2]) and 231 nM on IKZF2 (setting [4]).
For `O=C1CCC(N2Cc3cc(CN[C@@H]4CCC[C@H]([C@H](O)c5ccccc5)C4)ccc3C2=O)C(=O)N1` (stereo partly shown) [Example 136] the same measures were 93%, 95%, 99 nM and 204 nM.
For `O=C1CCC(N2Cc3cc(CN[C@@H]4CCC[C@H](Cc5ccccc5Cl)C4)ccc3C2=O)C(=O)N1` (stereo partly shown) [Example 137], in that order: 95%, 96%, 3 nM and 8 nM.
For the compound `C[C@@H]1CC[C@@H](NCc2ccc3c(c2)CN(C2CCC(=O)NC2=O)C3=O)CN1Cc1ccccc1` (stereo partly drawn) [Example 138, 3-(5-((((3R,6R)-1-benzyl-6-methylpiperidin-3-yl)amino)methyl)-1-oxoisoindolin-2-yl)piperidine-2,6-dione], the results for the Dmax on IKZF1 (setting [1]) and on IKZF2 (setting [3]) were 92% and 83%, respectively. Moreover, the values for the DC50 at IKZF1 (setting [2]) and on IKZF2 (setting [4]) were 27 nM and 189 nM, respectively.
Take `C[C@@H]1[C@H]2C[C@@H](C[C@H]1NCc1ccc3c(c1)CN(C1CCC(=O)NC1=O)C3=O)C2(C)C` (stereo partly shown) [Example 139]: the DC50 was more than 1000 nM at IKZF1 (setting [2]) and 109 nM at IKZF2 (setting [4]). The Dmax on IKZF2 (setting [3]) came out at 26%.
For `CC1(C)CCC(NCc2ccc3c(c2)CN(C2CCC(=O)NC2=O)C3=O)CC1` (stereo not shown) [Example 140], the Dmax on IKZF1 (setting [1]) came to 60%; at IKZF2 (setting [3]), 86%. Further, the DC50 at IKZF1 (setting [2]) came out at 55 nM; on IKZF2 (setting [4]), 61 nM.
For `O=C1CCC(N2Cc3cc(CNC45CCC(CC4)C5)ccc3C2=O)C(=O)N1` (stereo not shown) [Example 141], in that order: 32%, 93%, 121 nM and 37 nM.
`O=C1CCC(N2Cc3cc(CNC45CCC(CO)(CC4)C5)ccc3C2=O)C(=O)N1` (stereo not shown) [Example 142]: the Dmax on IKZF1 (setting [1]) was found to be 26%; at IKZF2 (setting [3]), 99%. The DC50 amounted to 374 nM at IKZF1 (setting [2]) and 218 nM at IKZF2 (setting [4]).
`O=C1CCC(N2Cc3cc(CNC45CCCC(O)(C4)C5)ccc3C2=O)C(=O)N1` (stereo not shown) [Example 143]: the DC50 is more than 1000 nM at IKZF1 (setting [2]) and 243 nM at IKZF2 (setting [4]). At IKZF2 (setting [3]), the Dmax was determined as 66%.
For the compound `COC(=O)C1(C)CCCC(NCc2ccc3c(c2)CN(C2CCC(=O)NC2=O)C3=O)C1` (stereo not shown) [Example 144], the Dmax at IKZF1 (setting [1]) came out at 50%; at IKZF2 (setting [3]) it was 88%. Further, the DC50 is 137 nM at IKZF1 (setting [2]) and 97 nM on IKZF2 (setting [4]).
Turning to `O=C1CCC(N2Cc3cc(CN[C@@H]4CCCC[C@H]4OCc4ccccc4Cl)ccc3C2=O)C(=O)N1` (stereo partly shown) [Example 145], the Dmax at IKZF1 (setting [1]) turned out to be 31%; on IKZF2 (setting [3]) it was 92%. Besides, the DC50 at IKZF1 (setting [2]) was 246 nM; at IKZF2 (setting [4]), 78 nM.
For `O=C1CCC(N2Cc3cc(CN[C@@H]4CCC[C@H](COCc5ccccc5)C4)ccc3C2=O)C(=O)N1` (stereo partly shown) [Example 146], in that order: 93%, 94%, 5 nM and 9 nM.
For `CC1CCC(C)(NCc2ccc3c(c2)CN(C2CCC(=O)NC2=O)C3=O)CC1` (stereo not shown) [Example 147] the same measures were 28%, 87%, 155 nM and 87 nM.
As to `CC[C@H]1CCCC[C@H]1NCc1ccc2c(c1)CN(C1CCC(=O)NC1=O)C2=O` (stereo partly shown) [Example 148], the figures for the Dmax on IKZF1 (setting [1]) and at IKZF2 (setting [3]) were 38% and 43%, respectively. For the same compound, the values for the DC50 at IKZF1 (setting [2]) and at IKZF2 (setting [4]) were 119 nM and 177 nM, respectively.
For the compound `CC[C@@H]1CCCC[C@H]1NCc1ccc2c(c1)CN(C1CCC(=O)NC1=O)C2=O` (stereo partly shown) [Example 149], the figures for the DC50 at IKZF1 (setting [2]) and at IKZF2 (setting [4]) were more than 1000 nM and 115 nM, respectively. The Dmax on IKZF2 (setting [3]) is 35%.
As for `O=C1CCC(N2Cc3cc(CNC4(C5CC5)CCCCC4)ccc3C2=O)C(=O)N1` (stereo not shown) [Example 150, 3-(5-(((1-cyclopropylcyclohexyl)amino)methyl)-1-oxoisoindolin-2-yl)piperidine-2,6-dione], the values for the DC50 at IKZF1 (setting [2]) and on IKZF2 (setting [4]) were more than 10000 nM and 445 nM, respectively. In addition, the Dmax at IKZF2 (setting [3]) was 47%.
Consider `CC1(NCc2ccc3c(c2)CN(C2CCC(=O)NC2=O)C3=O)CCCC1` (stereo not shown) [Example 151, 3-(5-(((1-methylcyclopentyl)amino)methyl)-1-oxoisoindolin-2-yl)piperidine-2,6-dione], for which the Dmax at IKZF1 (setting [1]) stood at 26%; on IKZF2 (setting [3]) it was 81%. Further, the DC50 is 172 nM on IKZF1 (setting [2]) and 151 nM at IKZF2 (setting [4]).
For `O=C1CCC(N2Cc3cc(CNC4(CCc5ccccc5)CCCCC4)ccc3C2=O)C(=O)N1` (stereo not shown) [Example 152, 3-(1-oxo-5-(((1-phenethylcyclohexyl)amino)methyl)isoindolin-2-yl)piperidine-2,6-dione], the DC50 at IKZF1 (setting [2]) is more than 1000 nM; on IKZF2 (setting [4]), 172 nM. Moreover, the Dmax at IKZF2 (setting [3]) worked out at 65%.
Consider `O=C1CCC(N2Cc3cc(CNC4(c5ccc(F)cc5)CCCCC4)ccc3C2=O)C(=O)N1` (stereo not shown) [Example 153, 3-(5-(((1-(4-fluorophenyl)cyclohexyl)amino)methyl)-1-oxoisoindolin-2-yl)piperidine-2,6-dione], for which the DC50 at IKZF1 (read-out: IKZF1 EC50, HEK293, 18-24 hr incubation, normalized to DMSO control) is more than 1000 nM; at IKZF2 (read-out: IKZF2 EC50; HiBiT assay, HEK293, 18-24 hr incubation, normalized to DMSO control), 122 nM. Besides, the Dmax on IKZF2 (setting [3]) was found to be 36%.
As to `COCC1(NCc2ccc3c(c2)CN(C2CCC(=O)NC2=O)C3=O)CCCCC1` (stereo not shown) [Example 154, 3-(5-(((1-(methoxymethyl)cyclohexyl)amino)methyl)-1-oxoisoindolin-2-yl)piperidine-2,6-dione], the values for the DC50 on IKZF1 (setting [2]) and at IKZF2 (setting [4]) were more than 1000 nM and 293 nM, respectively. In addition, the Dmax at IKZF2 (setting [3]) was found to be 47%.
For the compound `C[C@]1(NCc2ccc3c(c2)CN(C2CCC(=O)NC2=O)C3=O)CCCN(Cc2ccccc2)C1` (stereo partly drawn) [Example 155, 3-(5-((((S)-1-benzyl-3-methylpiperidin-3-yl)amino)methyl)-1-oxoisoindolin-2-yl)piperidine-2,6-dione], the Dmax on IKZF1 (setting [1]) was 61%; at IKZF2 (setting [3]) it was 87%. The DC50 at IKZF1 (setting [2]) was found to be 122 nM; on IKZF2 (setting [4]) it was 106 nM.
As to `C[C@@]1(NCc2ccc3c(c2)CN(C2CCC(=O)NC2=O)C3=O)CCCN(Cc2ccccc2)C1` (stereo partly drawn) [Example 156, 3-(5-((((R)-1-benzyl-3-methylpiperidin-3-yl)amino)methyl)-1-oxoisoindolin-2-yl)piperidine-2,6-dione], the values for the Dmax at IKZF1 (setting [1]) and at IKZF2 (setting [3]) were 92% and 96%, respectively. For the same compound, the DC50 on IKZF1 (setting [2]) stood at 58 nM; on IKZF2 (setting [4]), 35 nM.
Consider `O=C1CCC(N2Cc3cc(CN[C@H]4CCC[C@@H]4NCc4ccccc4)ccc3C2=O)C(=O)N1` (stereo partly drawn) [Example 157, 3-(5-((((1S,2S)-2-(benzylamino)cyclopentyl)amino)methyl)-1-oxoisoindolin-2-yl)piperidine-2,6-dione], for which the figures for the Dmax at IKZF1 (setting [1]) and at IKZF2 (setting [3]) were 66% and 43%, respectively. Further, the DC50 on IKZF1 (setting [2]) was determined as 131 nM; at IKZF2 (setting [4]), 443 nM.
